Data: US20240368151A1, “NOVEL ERGOLINES AND METHODS OF TREATING MOOD DISORDERS” (priority 2021, published 2024)

What was measured:
[1] = biological target: Alpha2A receptor (Homo sapiens (Human), UniProt P08913); test: FLIPR Ca^2+ flux agonist assay at Alpha2A; type: cell-based
Procedure: (§1) Functional Assays at Adrenergic and Dopamine Receptors. Agonist activity at Alpha1A, Alpha2A, D1, and D2 receptors was determined using a FLIPR Ca^2+ flux assay at WuXi AppTec (Hong Kong) Limited according to their standard protocols. Briefly, stably transfected cells expressing the receptor of interest were grown and plated in a 384 well plate and incubated at 37° C. and 5% CO2 overnight. A solution of 250 mM probenecid in 1 mL FLIPR assay buffer was prepared fresh. This was combined with a fluorescent dye (Fluo-4 Direct™) to make a final assay concentration of 2.5 mM. […] The fluorescent dye was then added to the assay plate along with assay buffer to a final volume of 40 μL. The cell plate was incubated for 50 min at 37° C. and 5% CO2 and placed into the FLIPR Tetra along with the compound plate. 10 μL of references and compounds were then transferred from the compound plate into the cell plate and the fluorescent signal was read.

[2] = biological target: Alpha1A receptor (Homo sapiens (Human), UniProt P35348); test: FLIPR Ca^2+ flux agonist assay at Alpha1A; type: cell-based
Alpha1A receptor, sequence (P35348 whole entry, looked up): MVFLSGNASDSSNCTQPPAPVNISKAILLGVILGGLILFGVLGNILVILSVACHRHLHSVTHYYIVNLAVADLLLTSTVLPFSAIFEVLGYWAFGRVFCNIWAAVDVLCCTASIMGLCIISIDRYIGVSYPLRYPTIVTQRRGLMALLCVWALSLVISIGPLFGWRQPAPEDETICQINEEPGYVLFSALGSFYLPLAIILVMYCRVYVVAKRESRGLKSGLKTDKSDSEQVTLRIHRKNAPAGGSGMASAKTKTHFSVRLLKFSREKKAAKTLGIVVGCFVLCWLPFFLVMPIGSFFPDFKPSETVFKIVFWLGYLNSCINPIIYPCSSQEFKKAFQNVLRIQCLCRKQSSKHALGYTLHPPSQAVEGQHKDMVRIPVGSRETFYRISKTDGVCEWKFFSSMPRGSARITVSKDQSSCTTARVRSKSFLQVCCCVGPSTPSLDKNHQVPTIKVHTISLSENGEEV
Procedure: Disclosed compounds were tested for agonist activity at several adrenergic (Alpha1A and Alpha2A) and dopamine (D1 and D2) receptor subtypes using Ca^2+ flux functional assays, with the results summarized in Table 6. Selectivity for the 5-HT2A receptor over these other targets varied depending on the specific target and compound.
Functional Assays at Adrenergic and Dopamine Receptors. Agonist activity at Alpha1A, Alpha2A, D1, and D2 receptors was determined using a FLIPR Ca^2+ flux assay at WuXi AppTec (Hong Kong) Limited according to their standard protocols. Briefly, stably transfected cells expressing the receptor of interest were grown and plated in a 384 well plate and incubated at 37° C. and 5% CO2 overnight. A solution of 250 mM probenecid in 1 mL FLIPR assay buffer was prepared fresh. This was combined with a fluorescent dye (Fluo-4 Direct™) to make a final assay concentration of 2.5 mM. Compounds were diluted 1:3.16 for 10 points and 750 nL was added to a 384 well compound plate using ECHO along with 30 μL assay buffer. The fluorescent dye was then added to the assay plate along with assay buffer to a final volume of 40 μL. The cell plate was incubated for 50 min at 37° C. and 5% CO2 and placed into the FLIPR Tetra along with the compound plate. 10 μL of references and compounds were then transferred from the compound plate into the cell plate and the fluorescent signal was read.

[3] = system: C57BL/6 mice; test: Mouse head twitch response (HTR) assay; type: in vivo; settings: SC; for head twitch response (HTR), in words: mice; for head twitch response (HTR), in words / # HTR at Most Efficacious Dose / Emax (95% CI): 20 min observation; for Most Efficacious Dose / # HTR at Most Efficacious Dose / Emax (95% CI): mouse HTR; for Emax (95% CI): curve fit
Procedure: Agonists of the 5-HT2A receptor are well known to induce this effect in rodents and the potency of this HTR is correlated with hallucinogenic potency in humans.
Animals. Adult male C57BL/6 mice, aged 6-8 weeks (body weight 20-25 g) were used in this experiment. Animals were housed under controlled temperatures and 12-hour light/dark cycles (lights on between 07:00-19:00 h), with ad libitum food and water. This study was carried out in strict accordance with the requirements of the Committee for the Purpose of Control and Supervision of Experiments on Animals (CPCSEA), India. All efforts were made to minimize suffering.
Drugs and Drug Administration. Compound 1 was synthesized as described above. It was administered subcutaneously (SC) dissolved in saline vehicle at a volume of 10 mL/kg. Five doses were tested, with n=6 animals/group. Doses were calculated on the basis of the freebase.
Procedure. Mice were administered one dose of the drug and immediately placed into a small open field for behavioral observation. Animals were observed continuously for 20 mins and the number of head twitches (HTs) were counted by an observer blind to the treatment condition.
Statistical Analysis. The data points shown are the mean±standard error of the mean (SEM). Analysis was performed using GraphPad Prism 6. Curves were fit using a non-linear gaussian distribution to calculate ED50 and Emax values.
Additional disclosed compounds were tested in the mouse head twitch response (HTR) assay according to the procedure described in Example 34. […] Lastly, compounds with much larger benzyl and phenethyl substituents on the amine nitrogen (e.g., 10 and 11) were low efficacy in this assay, consistent with their lower maximal efficacy in the arrestin functional assay (see Example 32).

[4] = Metabolic stability in mouse liver microsomes (MLM); type: in vitro ADME; settings: mouse, pooled mouse liver microsomes, pH 7.4, MLM (CD-1), NADPH
Excerpt: MLM Stability Pooled MLM from CD-1 mice (BIOIVT M00501) were used.

[5] = biological target: human 5-HT2C receptor (Homo sapiens (Human), UniProt P28335); type: cell-based; settings: Ca^2+ flux
human 5-HT2C receptor, sequence (P28335 33-458 limits assumed): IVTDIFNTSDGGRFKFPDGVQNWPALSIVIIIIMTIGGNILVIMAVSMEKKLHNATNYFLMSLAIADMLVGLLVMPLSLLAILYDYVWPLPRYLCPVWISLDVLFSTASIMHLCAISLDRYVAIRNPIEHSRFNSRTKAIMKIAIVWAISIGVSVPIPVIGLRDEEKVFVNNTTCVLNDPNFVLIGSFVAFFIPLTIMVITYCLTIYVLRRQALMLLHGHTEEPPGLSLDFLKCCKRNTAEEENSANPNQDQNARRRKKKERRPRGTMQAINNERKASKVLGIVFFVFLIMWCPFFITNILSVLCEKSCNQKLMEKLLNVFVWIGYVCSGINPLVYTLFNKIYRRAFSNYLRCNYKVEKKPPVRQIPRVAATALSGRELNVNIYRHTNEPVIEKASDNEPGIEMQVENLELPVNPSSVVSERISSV

[6] = biological target: 5-HT2B receptor (Homo sapiens (Human), UniProt P41595); test: FLIPR Ca^2+ flux agonist assay at 5-HT2B; type: cell-based; settings: HEK293
5-HT2B receptor, sequence (P41595 whole entry, looked up): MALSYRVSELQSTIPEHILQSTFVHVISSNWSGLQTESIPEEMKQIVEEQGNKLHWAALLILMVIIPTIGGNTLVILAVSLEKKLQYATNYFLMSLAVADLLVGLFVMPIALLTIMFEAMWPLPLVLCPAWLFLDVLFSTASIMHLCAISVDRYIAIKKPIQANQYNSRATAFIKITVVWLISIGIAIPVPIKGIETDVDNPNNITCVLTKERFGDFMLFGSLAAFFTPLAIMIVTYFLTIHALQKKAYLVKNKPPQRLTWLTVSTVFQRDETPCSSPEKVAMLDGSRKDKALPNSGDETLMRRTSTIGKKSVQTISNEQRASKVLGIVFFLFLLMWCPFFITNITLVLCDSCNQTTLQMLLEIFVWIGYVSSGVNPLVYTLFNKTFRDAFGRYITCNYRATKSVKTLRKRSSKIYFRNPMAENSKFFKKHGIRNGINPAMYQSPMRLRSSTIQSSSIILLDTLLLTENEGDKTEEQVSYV
In short: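 Agonist-induced calcium flux was measured on FLIPR Tetra in stable HEK293 cells for 5-HT2A and 5-HT2B, and in stable CHO cells for 5-HT1A. Cells were loaded with Fluo-4 Direct dye and 2.5 mM probenecid for 50 min at 37 °C before compound addition and fluorescence reading.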

[7] = biological target: 5-HT1A receptor (Homo sapiens (Human), UniProt P08908); test: FLIPR Ca^2+ flux agonist assay at 5-HT1A; type: cell-based; settings: CHO cells
[8] = Metabolic stability in human liver microsomes (HLM); type: in vitro ADME; settings: both sexes, human, pooled human liver microsomes, pH 7.4, NADPH
Excerpt: HLM Stability. Pooled HLM from adult male and female donors (Corning 452117) were used.

[9] = biological target: D1 receptor (Homo sapiens (Human), UniProt P21728); test: FLIPR Ca^2+ flux agonist assay at D1; type: cell-based
D1 receptor, sequence (P21728 whole entry, looked up): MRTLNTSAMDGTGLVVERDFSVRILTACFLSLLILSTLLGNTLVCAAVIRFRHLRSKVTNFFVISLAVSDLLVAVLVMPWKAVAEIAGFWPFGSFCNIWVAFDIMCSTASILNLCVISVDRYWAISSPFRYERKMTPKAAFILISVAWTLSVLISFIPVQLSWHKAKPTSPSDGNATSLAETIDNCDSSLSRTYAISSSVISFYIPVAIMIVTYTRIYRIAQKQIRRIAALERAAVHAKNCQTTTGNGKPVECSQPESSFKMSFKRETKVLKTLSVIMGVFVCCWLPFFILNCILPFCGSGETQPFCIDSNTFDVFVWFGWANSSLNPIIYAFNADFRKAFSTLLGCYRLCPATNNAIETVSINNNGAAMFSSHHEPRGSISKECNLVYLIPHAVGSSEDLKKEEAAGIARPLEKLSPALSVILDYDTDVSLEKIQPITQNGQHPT
Procedure: as §1

[10] = biological target: 5-HT1B receptor (Homo sapiens (Human), UniProt P28222); test: cAMP accumulation agonist assay at 5-HT1B; type: cell-based
5-HT1B receptor, sequence (P28222 whole entry, looked up): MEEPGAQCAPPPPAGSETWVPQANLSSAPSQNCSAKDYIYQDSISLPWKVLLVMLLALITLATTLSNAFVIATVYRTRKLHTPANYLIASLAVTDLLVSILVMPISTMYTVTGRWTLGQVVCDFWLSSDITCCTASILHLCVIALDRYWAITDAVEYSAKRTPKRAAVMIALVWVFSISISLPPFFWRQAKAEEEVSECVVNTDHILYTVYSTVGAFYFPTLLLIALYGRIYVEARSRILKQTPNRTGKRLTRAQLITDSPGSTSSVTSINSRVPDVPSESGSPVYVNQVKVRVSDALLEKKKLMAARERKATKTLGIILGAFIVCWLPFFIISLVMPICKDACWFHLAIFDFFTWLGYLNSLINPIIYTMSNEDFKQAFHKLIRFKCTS
Procedure: Functional Assay at 5-HT1B. Agonist activity at 5-HT1B was determined using a cAMP accumulation protocol at WuXi AppTec (Hong Kong) Limited according to their standard protocols. Briefly, stably transfected cells were plated in an OptiPlate-384 well plate, incubated at RT for 60 mins, and cAMP standard solution (800 nM, 10 μL) was added to the blank well. Then, 10 μL detection reagent was added to each well, the plate incubated for 60 mins at RT, and the plate read using EnVision.

Alpha2A receptor, sequence (P08913 whole entry, looked up): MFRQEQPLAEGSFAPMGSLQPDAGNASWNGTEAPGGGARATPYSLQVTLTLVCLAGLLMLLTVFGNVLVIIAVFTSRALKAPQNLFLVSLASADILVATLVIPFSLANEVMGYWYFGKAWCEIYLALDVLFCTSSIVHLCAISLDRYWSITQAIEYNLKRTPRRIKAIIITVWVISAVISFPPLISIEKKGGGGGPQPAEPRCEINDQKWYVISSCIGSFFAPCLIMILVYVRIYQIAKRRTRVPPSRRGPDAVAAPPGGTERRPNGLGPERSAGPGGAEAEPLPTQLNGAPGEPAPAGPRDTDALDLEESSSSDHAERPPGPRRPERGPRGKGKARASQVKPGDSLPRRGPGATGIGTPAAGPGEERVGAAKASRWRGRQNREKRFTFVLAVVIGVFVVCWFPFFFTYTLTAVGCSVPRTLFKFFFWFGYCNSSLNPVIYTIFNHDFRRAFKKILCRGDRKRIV

SMILES	Alpha 2A % Act @ Max Dose [1] [%]	agonist efficacy at Alpha2A, in words [1]	Alpha 1A % Act @ Max Dose [2] [%]	agonist efficacy at Alpha1A, in words [2]	head twitch response (HTR), in words [3]	Most Efficacious Dose [3]	# HTR at Most Efficacious Dose [3]	Emax (95% CI) [3]	half-life at 1 μM [4] [min]	5-HT2C % Act @ Max Dose [5] [%]	5-HT2B % Act @ Max Dose [6] [%]	5-HT1A % Act @ Max Dose [7] [%]	half-life at 1 μM [8] [min]	D1 % Act @ Max Dose [9] [%]	5-HT1B % Act @ Max Dose [10] [%]
CCN(CC)C(=O)[C@@H]1C=C2c3cccc4[nH]cc(c34)C[C@H]2N(CCc2ccccc2OC)C1 [Compound 11, (6aR,9R)-N,N-diethyl-7-(2-methoxyphenethyl)-4,6,6a,7,8,9-hexahydroindolo[4,3-fg]quinoline-9-carboxamide]	14.18	very low efficacy agonists	28.23	very low efficacy agonists	low efficacy	(3.2 mg/kg)	12.0	19.79	0.917	107.89	2.5	57.91	2.37	90.9	47.01
CCCN1C[C@H](C(=O)NC(CC)CC)C=C2c3cccc4[nH]cc(c34)C[C@H]21 [Compound 6, (6aR,9R)-N-(pentan-3-yl)-7-propyl-4,6,6a,7,8,9-hexahydroindolo[4,3-fg]quinoline-9-carboxamide]	–	–	–	–	–	(1 mg/kg)	20.5	23.06	0.6	116.77	92.93	101.82	1.61	93.13	94.62
CCCN1C[C@H](C(=O)N2[C@@H](C)C[C@@H]2C)C=C2c3cccc4[nH]cc(c34)C[C@H]21 [Compound 4, ((2S,4S)-2,4-dimethylazetidin-1-yl)((6aR,9R)-7-propyl-4,6,6a,7,8,9-hexahydroindolo[4,3-fg]quinolin-9-yl)methanone]	102.86	–	118.64	–	less efficacious than its N-methyl counterpart compound Int11	(0.1 mg/kg)	4.667	4.034	0.8	110.845	87.46	123.1	10.6	113.6	96
CCCN1C[C@H](C(=O)N(CC)CC)C=C2c3cccc4[nH]cc(c34)C[C@H]21 [Compound 1, (6aR,9R)-N,N-diethyl-7-propyl-4,6,6a,7,8,9-hexahydroindolo[4,3-fg]quinoline-9-carboxamide]	58.3	–	80.6	–	induced a robust and dose-dependent HTR	(1 mg/kg)	19.5	21.63	2.3	106.79	103.75	95.6	15.1	108.68	96.6
CCN(CC)C(=O)[C@@H]1C=C2c3cccc4[nH]cc(c34)C[C@H]2N(Cc2ccccc2OC)C1 [Compound 10, (6aR,9R)-N,N-diethyl-7-(2-methoxybenzyl)-4,6,6a,7,8,9-hexahydroindolo[4,3-fg]quinoline-9-carboxamide]	36.52	very low efficacy agonists	26.56	very low efficacy agonists	low efficacy	(3.2 mg/kg)	6.5	7.749	1	13.417	2.005	52.96	7.3	114.19	87.29
CCCN1C[C@H](C(=O)N[C@H](C)CC)C=C2c3cccc4[nH]cc(c34)C[C@H]21 [Compound 3, (6aR,9R)-N-((R)-sec-butyl)-7-propyl-4,6,6a,7,8,9-hexahydroindolo[4,3-fg]quinoline-9-carboxamide]	96.82	–	124.7	–	–	(0.32 mg/kg)	27.0	25.56	1.6	119.49	94.11	107.6	4.2	121.3	98.66
CCN(CC)C(=O)[C@@H]1C=C2c3cccc4[nH]cc(c34)C[C@H]2N(CCCF)C1 [Compound 2, (6aR,9R)-N,N-diethyl-7-(3-fluoropropyl)-4,6,6a,7,8,9-hexahydroindolo[4,3-fg]quinoline-9-carboxamide]	64.96	–	109.68	–	–	(0.32 mg/kg)	21.833	20.47	2.67	105.48	101.16	92.42	19.1	113.6	89.97
